Test results reported in patent US11591564B2, “Peptide conjugated hydrogel substrate for the maintenance and expansion of human pluripotent stem cells” (University of Pittsburgh—Of the Commonwealth System of …, priority 2016, dated 2023).
Where “and” joins values, the source holds several entries; their conditions need not be identical. Equal entries are not always repeated. No end group written: not given here.

What was measured:
hESCs = experiment: hESC attachment and viability on HAV10-modified LBL films, effect of EDC/NHS concentration; format: cell-based; conditions: EDC/NHS used for HAV10 conjugation of PEI(Alg/PAH)5Alg films; 6 hours attachment
Procedure: Layer-by-layer (LBL) coating onto glass coverslips was initiated by incubation in 1.1 mg/ml Polyethylenimine (PEI) for 5 min. The polyelectrolyte solutions used for LBL deposition were 1.1 mg/ml low viscosity alginate (Alg) and poly (allylamine hydrochloride) (PAH), made using 0.1 M 2-(N-morpholino) ethanesulfonic acid (MES) buffer with 0.3M NaCl at pH 6.5. Polyelectrolyte multilayers were deposited by alternatively immersing slides into Alg, followed by PAH, for 1 min each, and were subsequently washed with 0.9% NaCl for 1 min between each deposition step. This process was repeated for 5 Alg/PAH layers, and the film was terminated with a final Alg layer (PEI(Alg/PAH)5Alg). Coverslips were dried at room temperature until used.
Prepared PEI(Alg/PAH)5Alg films were functionalized with the e-cadherin mimicking peptide HAV10 using water soluble carbodiimide chemistry. […]
Human embryonic stem cells (hESCs) were treated with the ROCK inhibitor Y-27632 for 2 hours prior to harvesting. hESCs were harvested using enzyme-free dissociation buffer and were treated with the Vibrant DiD cell labeling solution, to allow for visualization of cell attachment (700 nm). […] Cell attachment for each condition was determined by normalizing the MFI of attached cells to the MFI of the total possible number of cells, for each well imaged.

hPSCs = hPSCs encapsulated in alginate beads (3D), 10-100 mM BaCl2 tested, day 6
Procedure: hESCs were encapsulated using 10, 15, 20, 50 or 100 mM BaCl2 at a seeding density of 1×10^6 cells/ml of alginate solution. Alginate capsules were incubated for 6-8 min in the BaCl2 solution. Capsules were washed three times with DMEM/F12 and suspended in mTeSR1 ([sequence] Technologies, Vancouver, BC) with 10 mM of the ROCK inhibitor (rho-associated, coiled-coil containing protein kinase inhibitor) Y-27632 (e.g., 4-[(1R)-1-aminoethyl]-N-4-pyridinyl-trans-cyclohexanecarboxamide, dihydrochloride, [sequence] Technologies, Vancouver, BC) for 4 days, followed by 2 days in mTeSR1 alone to allow for colony formation. On day 6, viability of encapsulated hPSCs was analyzed by LIVE/DEAD staining, and imaged with fluorescent microscopy. The stock LIVE images from LIVE/DEAD analysis were processed using Metamorph Integrated Morphometry Analysis. hPSC colony data was generated for each colony within each image, measuring the area of the colony. This image processing was done on images taken on 5 capsules, each day for each condition.

H1 hESCs [1] = experiment: Cell expansion by MTS assay, day 6 normalized to day 1; format: cell-based, human; conditions: 6 days of propagation; alginate modified with 50 μg/ml peptide, or recombinant E-cadherin
Procedure: To determine cell expansion, cellular metabolism was assayed on cells attached to alginate conjugated with 50 μg/ml of each peptide using the CellTiter 96® AQueous One Solution Cell Proliferation Assay (MTS) after 1 and 6 days of culture, according to manufacturer's instructions. Briefly, cells were incubated with the MTS solution at a 1:5 v/v dilution for 3 hours at 37° C. Absorbance intensity of the supernatant at 490 nm was measured using a Synergy 2 multi-mode Microplate Reader. Fold expansion was determined by normalizing the day 6 absorbance by the day 1 absorbance, for cells grown on each peptide-conjugated alginate substrate.
Since high cell expansion is necessary to generate clinically relevant numbers of hPSCs, we next quantified the expansion potential of hPSCs grown on each peptide. Expansion potential was determined by normalizing cell number after 6 days of propagation, by day 1 cell number using MTS.

H1 hESCs [2] = experiment: Day 1 cell attachment to peptide conjugated alginate hydrogel (DiD label, LI-COR MFI); format: cell-based, human; conditions: peptide conjugated to alginate at 0-500 μg/ml
Procedure: The alginate hydrogels were formed prior to peptide attachment. The culture well was coated with a thin layer of 1.1% (w/v) low viscosity alginate (Sigma-Aldrich) with 0.2% (v/v) gelatin (Sigma-Aldrich), which was allowed to dry overnight. 20 mM BaCl2 was used to rehydrate and simultaneously cross link the alginate in a thin hydrogel covering the bottom of the culture well. Peptide conjugation was done using water soluble carbodiimide chemistry. Alginate hydrogels were activated by incubating with 20 mM/10 mM EDC/NHS in buffer containing 0.3 M 2-(N-morpholino) ethanesulfonic acid (MES) and 0.1 M NaCl, for 15 min. The peptides were then added and incubated overnight at 4° C. to allow for peptide conjugation to the […] of the alginate hydrogel. After conjugation, peptide modified hydrogels were washed with 0.9% saline prior to seeding cells.
Cell Attachment. For cell attachment studies to the peptide modified hydrogels, hESC were first labeled with DiD according to manufactures instruction, a fluorescent lipophilic dye, which is incorporated in the cell membrane. hESC were treated with 10 μm Y-27632 (R&D Systems, Minneapolis, Min.) for 2 hours prior to harvesting by Accutase (Invitrogen) treatment for 5-7 min. […] Cell attachment was analyzed 24 hours after seeding. First, total cell number per well was quantified using the LI-COR Odyssey scanner and Image Studio software to obtain the total possible MFI. Dead and unattached cells were washed away and the number of attached cells per well was again quantified using the LI-COR Odyssey scanner Image Studio software. […]
Having confirmed peptide conjugation to the alginate hydrogel, our first step was to analyze cell attachment to each peptide conjugated substrate. […] After 1 day, cell attachment was quantified for each tested condition using the LI-COR Odyssey scanner. Percent cell attachment was determined by scanning the signal for total seeded cells (prior to wash) and attached cells (post-wash) and normalizing the attached cell MFI to the total cell MFI, for each peptide and peptide concentration (FIG. 9A).

H1 hESCs [3] = experiment: Directed differentiation to definitive endoderm, qRT-PCR of SOX17 and FOXA2; format: cell-based, human; conditions: for FOXA2 gene expression, fold increase / SOX17 gene expression, upregulation compared to undifferentiated hESC controls: after DE induction (ActivinA + Wnt3A, 4 days); for FOXA2 expression, difference compared to Matrigel / SOX17 expression, difference compared to Matrigel: after DE induction
Procedure: (§1) hESC seeded on the peptide modified alginate hydrogels were propagated for 4 days in mTeSR1 with 10 μm Y-27632 prior to DE induction. DE was induced using 100 ng/ml ActivinA (R&D Systems) with 25 ng/ml Wnt3A (R&D Systems) for 4 days. Quantitative Reverse Transcriptase Polymerase Chain Reaction. mRNA was isolated using the NucleoSpin RNA II kit (Macherey-Nagel, Bethlehem, Pa.). cDNA was obtained using ImpromII Reverse Transcription (Promega, Madison, Wis.). Each PCR reaction contained 5 μl SYBR Green Master Mix (Agilent, Santa Clara, Calif.), 2 μl nuclease free H2O, 2 μl primer, and 10 cDNA. Samples were normalized to the house keeping gene GAPDH and analyzed relative to UD hESCs using the ΔΔCt method. Gene expression was measured with quantitative polymerase chain reaction (qRT-PCR) using an MX3005P system (Agilent).
Having confirmed that hPSCs maintained high pluripotency after being propagated on the E-cadherin mimicking substrates, the next question was if the differentiation potency was also maintained. To evaluate differentiation potential, cells were induced toward the definitive endoderm (DE) germ layer.

H1 hESCs [4] = experiment: Pluripotency after propagation, qRT-PCR of OCT4 and Nanog; format: cell-based, human; conditions: 6 days on alginate conjugated with 50 μg/ml peptide
Procedure: as §1
Having confirmed that the substrates supported attachment and propagation of hPSCs, the next step was to analyze the maintenance of hPSC pluripotency after propagation. hPSC pluripotency is the ability to become any cell type in the body, and along with self-renewal, is the defining characteristic of hPSCs. The maintenance of pluripotency is critical for the downstream differentiation of hPSC into any functional cell types, for cell therapy applications. hPSCs were seeded on alginate conjugated with 50 μg/ml of HAV10, ADT10, HAV6, or ADT, and propagated for 6 days. […] As before, cell morphology was similar across each peptide, and appeared to have similar morphology to the typical hPSC colony (FIG. 12A).

Molecule	toxicity towards hPSC attachment and viability (hESCs)	BaCl2 concentration supportive and strongly inductive of hPSC growth (hPSCs) [mM]	fold expansion of hPSCs (day 6 / day 1) (H1 hESCs [1])	peptide concentration at which cell attachment peaked (H1 hESCs [2]) [µg/mL]	FOXA2 gene expression, fold increase (H1 hESCs [3]) [fold]	SOX17 gene expression, upregulation compared to undifferentiated hESC controls (H1 hESCs [3]) [fold]	Nanog gene expression, upregulation compared to Matrigel (H1 hESCs [4])	OCT4 gene expression, upregulation compared to Matrigel (H1 hESCs [4])	FOXA2 expression, difference compared to Matrigel (H1 hESCs [3])	SOX17 expression, difference compared to Matrigel (H1 hESCs [3])	cell attachment compared among peptides (H1 hESCs [2])
1-ethyl-3-(-3-dimethylaminopropyl) carbodiimide hydrochloride (EDC)/N-hydroxysuccinimide (NHS) [EDC/NHS]	mild toxicity	–	–	–	–	–	–	–	–	–	–
[Ba+2].[Cl-].[Cl-] [Barium Chloride (BaCl2), Barium Chloride]	–	< 15	–	–	–	–	–	–	–	–	–
ADTPPV (also: conjugated to alginate hydrogel, site not given here) [ADT6]	–	–	11 fold	50	174	3400	on par with Matrigel	on par with Matrigel	–	–	–
LFSHAVSSNG (also: conjugated to alginate hydrogel, site not given here) [HAV10]	–	–	approximately 23 fold	50	497	~15000	–	–	no statistical difference	no statistically significant difference	–
QGADTPPVGV (also: conjugated to alginate hydrogel, site not given here) [ADT10]	–	–	approximately 14 fold	–	409	~13700	1.5 fold and 1.6 fold	3 fold and 3.6 fold	no statistical difference	no statistically significant difference	highest cell attachment among all peptides
SHAVSS (also: conjugated to alginate hydrogel, site not given here) [HAV6]	–	–	16 fold	–	355	5900	1.5 fold	2 fold	–	–	–
